Measurements taken from ChEMBL document CHEMBL5291721, “A preclinical secondary pharmacology resource illuminates target-adverse drug reaction associations of marketed drugs” (Nat Commun, 2023).

How the values were obtained:
[1] = molecular target: T1, B2 bradykinin receptor (Homo sapiens, UniProt P30411)
T1 sequence (P30411 whole entry): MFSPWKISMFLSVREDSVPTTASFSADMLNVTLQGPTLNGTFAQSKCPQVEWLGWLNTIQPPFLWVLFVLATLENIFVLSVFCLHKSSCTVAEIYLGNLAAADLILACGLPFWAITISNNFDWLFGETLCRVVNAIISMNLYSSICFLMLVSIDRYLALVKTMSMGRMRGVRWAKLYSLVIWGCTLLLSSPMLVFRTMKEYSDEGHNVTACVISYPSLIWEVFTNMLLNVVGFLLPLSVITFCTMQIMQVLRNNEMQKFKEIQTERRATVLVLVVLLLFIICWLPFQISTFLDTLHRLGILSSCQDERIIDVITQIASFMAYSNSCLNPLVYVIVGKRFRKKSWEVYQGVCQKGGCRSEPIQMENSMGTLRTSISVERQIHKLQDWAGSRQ

[2] = molecular target: Voltage-dependent L-type calcium channel subunit alpha-1C (Rattus norvegicus, UniProt P22002); type: functional
Voltage-dependent L-type calcium channel subunit alpha-1C, sequence (P22002 whole entry): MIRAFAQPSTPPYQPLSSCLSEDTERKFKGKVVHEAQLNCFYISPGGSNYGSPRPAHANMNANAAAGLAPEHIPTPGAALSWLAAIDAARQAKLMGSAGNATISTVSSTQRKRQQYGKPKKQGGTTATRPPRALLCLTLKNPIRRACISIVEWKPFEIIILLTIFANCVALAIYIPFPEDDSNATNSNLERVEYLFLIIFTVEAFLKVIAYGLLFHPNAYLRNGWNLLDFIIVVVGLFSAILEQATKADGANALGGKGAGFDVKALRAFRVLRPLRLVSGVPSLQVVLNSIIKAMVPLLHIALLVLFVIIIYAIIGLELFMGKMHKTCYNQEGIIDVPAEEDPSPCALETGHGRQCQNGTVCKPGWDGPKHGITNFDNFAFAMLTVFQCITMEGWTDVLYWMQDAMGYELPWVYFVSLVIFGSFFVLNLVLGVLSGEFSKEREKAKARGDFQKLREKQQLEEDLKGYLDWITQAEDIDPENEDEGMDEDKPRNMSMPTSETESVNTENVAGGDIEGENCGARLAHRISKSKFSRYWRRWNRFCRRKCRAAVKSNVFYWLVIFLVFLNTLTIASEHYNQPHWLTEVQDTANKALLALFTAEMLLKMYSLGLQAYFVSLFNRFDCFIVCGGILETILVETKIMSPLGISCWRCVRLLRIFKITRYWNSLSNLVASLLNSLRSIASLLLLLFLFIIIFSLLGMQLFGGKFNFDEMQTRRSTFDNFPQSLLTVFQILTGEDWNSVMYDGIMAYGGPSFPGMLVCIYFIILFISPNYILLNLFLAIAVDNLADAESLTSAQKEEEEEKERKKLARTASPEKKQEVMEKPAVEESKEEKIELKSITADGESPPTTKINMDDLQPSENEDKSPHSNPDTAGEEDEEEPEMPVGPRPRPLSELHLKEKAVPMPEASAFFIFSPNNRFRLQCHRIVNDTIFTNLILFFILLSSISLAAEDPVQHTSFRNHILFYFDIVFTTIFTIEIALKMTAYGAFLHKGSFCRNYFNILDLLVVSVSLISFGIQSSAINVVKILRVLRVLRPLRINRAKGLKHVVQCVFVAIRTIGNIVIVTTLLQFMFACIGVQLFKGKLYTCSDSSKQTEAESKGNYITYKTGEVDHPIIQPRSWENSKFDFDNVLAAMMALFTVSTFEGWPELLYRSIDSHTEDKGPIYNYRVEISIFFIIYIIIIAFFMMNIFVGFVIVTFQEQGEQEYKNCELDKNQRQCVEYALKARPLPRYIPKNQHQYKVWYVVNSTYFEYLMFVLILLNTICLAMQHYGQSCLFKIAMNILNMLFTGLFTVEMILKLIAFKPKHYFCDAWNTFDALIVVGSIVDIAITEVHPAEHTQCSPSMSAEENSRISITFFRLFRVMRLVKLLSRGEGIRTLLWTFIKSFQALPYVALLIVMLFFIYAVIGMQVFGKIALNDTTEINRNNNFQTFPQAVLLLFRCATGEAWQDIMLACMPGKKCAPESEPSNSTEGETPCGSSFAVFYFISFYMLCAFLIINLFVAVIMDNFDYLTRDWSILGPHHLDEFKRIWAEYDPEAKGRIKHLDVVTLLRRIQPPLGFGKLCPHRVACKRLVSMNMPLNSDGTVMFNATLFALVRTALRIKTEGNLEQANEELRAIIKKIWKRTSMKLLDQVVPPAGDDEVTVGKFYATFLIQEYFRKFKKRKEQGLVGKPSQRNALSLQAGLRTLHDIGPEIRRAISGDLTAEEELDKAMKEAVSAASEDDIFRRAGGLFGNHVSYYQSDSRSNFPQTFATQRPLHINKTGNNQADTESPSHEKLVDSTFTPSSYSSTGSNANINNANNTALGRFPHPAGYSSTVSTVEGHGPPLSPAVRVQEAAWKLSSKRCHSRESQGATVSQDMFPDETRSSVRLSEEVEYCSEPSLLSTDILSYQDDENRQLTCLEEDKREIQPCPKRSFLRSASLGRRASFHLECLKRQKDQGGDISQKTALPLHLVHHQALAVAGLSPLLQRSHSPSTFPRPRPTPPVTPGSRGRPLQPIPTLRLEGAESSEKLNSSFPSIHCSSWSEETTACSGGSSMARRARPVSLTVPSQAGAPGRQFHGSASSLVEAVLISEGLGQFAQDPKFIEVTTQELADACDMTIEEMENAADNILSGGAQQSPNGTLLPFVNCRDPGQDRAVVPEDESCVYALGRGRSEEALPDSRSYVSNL

[3] = molecular target: T2, Muscarinic acetylcholine receptor M1 (Homo sapiens, UniProt P11229); type: functional
T2 sequence (P11229 whole entry): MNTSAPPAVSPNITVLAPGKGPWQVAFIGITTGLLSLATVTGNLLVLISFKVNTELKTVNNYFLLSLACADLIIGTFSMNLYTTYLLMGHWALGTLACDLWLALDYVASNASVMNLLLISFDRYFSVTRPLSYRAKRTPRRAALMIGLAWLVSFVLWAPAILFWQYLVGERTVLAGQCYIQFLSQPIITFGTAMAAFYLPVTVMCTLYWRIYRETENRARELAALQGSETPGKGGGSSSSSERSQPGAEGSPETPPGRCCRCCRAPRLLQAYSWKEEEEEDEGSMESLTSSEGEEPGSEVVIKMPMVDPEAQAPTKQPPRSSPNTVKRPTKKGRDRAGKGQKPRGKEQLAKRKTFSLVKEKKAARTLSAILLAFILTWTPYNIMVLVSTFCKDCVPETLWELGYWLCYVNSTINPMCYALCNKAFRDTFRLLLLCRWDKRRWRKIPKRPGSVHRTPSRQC

[4] = molecular target: Neuronal acetylcholine receptor subunit alpha-4 (Homo sapiens, UniProt P43681)
Neuronal acetylcholine receptor subunit alpha-4, sequence (P43681 whole entry): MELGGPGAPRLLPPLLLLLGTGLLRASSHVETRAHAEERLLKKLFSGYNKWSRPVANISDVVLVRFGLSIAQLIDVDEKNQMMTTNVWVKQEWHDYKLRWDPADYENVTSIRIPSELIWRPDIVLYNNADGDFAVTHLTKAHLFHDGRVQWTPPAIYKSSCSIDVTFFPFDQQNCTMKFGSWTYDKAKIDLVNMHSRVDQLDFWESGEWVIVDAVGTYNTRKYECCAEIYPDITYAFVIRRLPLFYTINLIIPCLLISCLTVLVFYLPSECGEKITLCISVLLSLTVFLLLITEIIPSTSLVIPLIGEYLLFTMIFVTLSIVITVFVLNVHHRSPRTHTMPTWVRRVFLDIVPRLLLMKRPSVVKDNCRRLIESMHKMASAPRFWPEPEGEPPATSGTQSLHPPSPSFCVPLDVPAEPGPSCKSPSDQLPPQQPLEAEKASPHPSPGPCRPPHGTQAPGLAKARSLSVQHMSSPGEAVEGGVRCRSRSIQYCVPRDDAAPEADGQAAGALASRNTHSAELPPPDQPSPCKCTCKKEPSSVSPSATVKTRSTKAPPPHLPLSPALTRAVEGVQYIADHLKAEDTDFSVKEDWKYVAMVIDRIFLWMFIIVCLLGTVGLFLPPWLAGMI

[5] = molecular target: T3, Endothelin-1 receptor (Homo sapiens, UniProt P25101)
T3 sequence (P25101 whole entry): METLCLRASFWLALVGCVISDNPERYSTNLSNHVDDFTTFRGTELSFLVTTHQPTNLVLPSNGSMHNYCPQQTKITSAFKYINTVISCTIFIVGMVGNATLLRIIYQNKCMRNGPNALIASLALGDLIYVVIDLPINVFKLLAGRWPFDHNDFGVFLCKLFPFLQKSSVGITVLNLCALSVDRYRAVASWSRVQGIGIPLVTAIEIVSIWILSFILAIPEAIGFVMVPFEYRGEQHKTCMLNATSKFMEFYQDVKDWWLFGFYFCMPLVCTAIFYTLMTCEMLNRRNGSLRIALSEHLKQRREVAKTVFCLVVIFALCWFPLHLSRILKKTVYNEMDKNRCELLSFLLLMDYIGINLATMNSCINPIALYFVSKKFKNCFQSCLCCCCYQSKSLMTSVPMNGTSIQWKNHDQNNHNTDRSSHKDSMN

[6] = molecular target: Gamma-aminobutyric acid receptor subunit alpha-1 (Rattus norvegicus, UniProt P62813)
Gamma-aminobutyric acid receptor subunit alpha-1, sequence (P62813 whole entry): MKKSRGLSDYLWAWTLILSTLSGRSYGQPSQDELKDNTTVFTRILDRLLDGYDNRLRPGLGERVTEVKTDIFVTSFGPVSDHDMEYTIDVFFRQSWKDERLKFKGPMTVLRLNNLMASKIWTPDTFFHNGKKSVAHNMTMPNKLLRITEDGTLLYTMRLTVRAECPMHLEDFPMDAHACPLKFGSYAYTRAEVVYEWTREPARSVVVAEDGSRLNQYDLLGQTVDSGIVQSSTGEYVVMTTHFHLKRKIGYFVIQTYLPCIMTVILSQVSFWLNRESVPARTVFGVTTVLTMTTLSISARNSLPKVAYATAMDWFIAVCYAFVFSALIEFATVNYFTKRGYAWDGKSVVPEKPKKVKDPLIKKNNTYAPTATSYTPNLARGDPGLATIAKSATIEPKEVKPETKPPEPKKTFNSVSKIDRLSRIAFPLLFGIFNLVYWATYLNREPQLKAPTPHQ

[7] = molecular target: Histamine H1 receptor (Homo sapiens, UniProt P35367)
Histamine H1 receptor, sequence (P35367 whole entry): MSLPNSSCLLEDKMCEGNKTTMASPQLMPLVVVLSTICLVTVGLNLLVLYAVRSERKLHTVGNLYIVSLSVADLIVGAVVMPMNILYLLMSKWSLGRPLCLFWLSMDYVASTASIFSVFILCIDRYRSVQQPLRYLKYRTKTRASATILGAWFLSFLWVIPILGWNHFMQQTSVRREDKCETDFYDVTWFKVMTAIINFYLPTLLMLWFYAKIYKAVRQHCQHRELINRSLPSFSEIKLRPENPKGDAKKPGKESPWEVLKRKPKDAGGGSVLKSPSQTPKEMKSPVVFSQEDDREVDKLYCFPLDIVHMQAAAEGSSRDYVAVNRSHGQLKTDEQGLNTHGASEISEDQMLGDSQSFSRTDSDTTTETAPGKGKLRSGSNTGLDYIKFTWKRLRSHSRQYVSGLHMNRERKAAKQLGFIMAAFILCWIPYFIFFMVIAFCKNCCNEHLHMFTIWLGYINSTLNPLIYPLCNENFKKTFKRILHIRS

[8] = molecular target: T4, 5-hydroxytryptamine receptor 1A (Homo sapiens, UniProt P08908); type: functional, cell-based
T4 sequence (P08908 whole entry): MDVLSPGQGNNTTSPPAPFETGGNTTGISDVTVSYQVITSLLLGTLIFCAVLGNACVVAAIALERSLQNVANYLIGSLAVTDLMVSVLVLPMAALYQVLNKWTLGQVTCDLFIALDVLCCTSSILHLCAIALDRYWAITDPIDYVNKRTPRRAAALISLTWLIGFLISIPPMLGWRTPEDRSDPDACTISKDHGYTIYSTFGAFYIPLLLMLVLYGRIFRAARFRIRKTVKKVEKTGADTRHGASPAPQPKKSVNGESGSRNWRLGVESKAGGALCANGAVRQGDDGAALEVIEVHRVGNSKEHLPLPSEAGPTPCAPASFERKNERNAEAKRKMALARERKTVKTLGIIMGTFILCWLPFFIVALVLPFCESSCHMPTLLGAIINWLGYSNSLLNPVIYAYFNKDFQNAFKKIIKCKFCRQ

[9] = molecular target: 5-hydroxytryptamine receptor 2B (Homo sapiens, UniProt P41595); type: functional, cell-based
[10] = molecular target: Voltage-gated inwardly rectifying potassium channel KCNH2 (Homo sapiens, UniProt Q12809); type: functional; settings: read-out: AC50
[11] = molecular target: Melanocortin receptor 3 (Homo sapiens, UniProt P41968)
Melanocortin receptor 3, sequence (P41968 whole entry): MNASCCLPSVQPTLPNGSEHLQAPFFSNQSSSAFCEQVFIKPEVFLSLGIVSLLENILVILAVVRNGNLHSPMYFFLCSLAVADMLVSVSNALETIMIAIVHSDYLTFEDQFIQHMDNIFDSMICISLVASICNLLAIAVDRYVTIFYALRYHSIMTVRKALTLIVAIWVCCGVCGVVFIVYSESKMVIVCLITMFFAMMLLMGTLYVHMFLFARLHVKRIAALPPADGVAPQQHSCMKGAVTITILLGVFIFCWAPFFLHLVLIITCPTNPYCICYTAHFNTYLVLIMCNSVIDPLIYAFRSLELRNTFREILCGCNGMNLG

[12] = molecular target: T5, Prostaglandin G/H synthase 1 (Rattus norvegicus, UniProt Q63921); type: functional
T5 sequence (Q63921 whole entry): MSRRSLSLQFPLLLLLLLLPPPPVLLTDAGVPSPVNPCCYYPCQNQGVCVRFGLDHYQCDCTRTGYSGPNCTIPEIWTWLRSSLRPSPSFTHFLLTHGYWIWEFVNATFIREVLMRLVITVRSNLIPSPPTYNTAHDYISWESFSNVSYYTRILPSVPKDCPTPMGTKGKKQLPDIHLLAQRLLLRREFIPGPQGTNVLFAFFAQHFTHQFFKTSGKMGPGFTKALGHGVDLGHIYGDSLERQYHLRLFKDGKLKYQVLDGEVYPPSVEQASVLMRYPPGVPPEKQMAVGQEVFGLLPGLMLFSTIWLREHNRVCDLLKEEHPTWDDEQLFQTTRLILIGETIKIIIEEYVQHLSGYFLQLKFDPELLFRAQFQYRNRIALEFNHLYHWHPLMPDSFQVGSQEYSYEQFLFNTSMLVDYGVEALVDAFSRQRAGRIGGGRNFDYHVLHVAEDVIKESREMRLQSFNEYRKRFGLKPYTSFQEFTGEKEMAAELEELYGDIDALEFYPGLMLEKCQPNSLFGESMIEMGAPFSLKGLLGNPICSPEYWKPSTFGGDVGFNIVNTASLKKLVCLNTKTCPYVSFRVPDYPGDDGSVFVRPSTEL

[13] = molecular target: Sodium-dependent dopamine transporter (Homo sapiens, UniProt Q01959)
Sodium-dependent dopamine transporter, sequence (Q01959 whole entry): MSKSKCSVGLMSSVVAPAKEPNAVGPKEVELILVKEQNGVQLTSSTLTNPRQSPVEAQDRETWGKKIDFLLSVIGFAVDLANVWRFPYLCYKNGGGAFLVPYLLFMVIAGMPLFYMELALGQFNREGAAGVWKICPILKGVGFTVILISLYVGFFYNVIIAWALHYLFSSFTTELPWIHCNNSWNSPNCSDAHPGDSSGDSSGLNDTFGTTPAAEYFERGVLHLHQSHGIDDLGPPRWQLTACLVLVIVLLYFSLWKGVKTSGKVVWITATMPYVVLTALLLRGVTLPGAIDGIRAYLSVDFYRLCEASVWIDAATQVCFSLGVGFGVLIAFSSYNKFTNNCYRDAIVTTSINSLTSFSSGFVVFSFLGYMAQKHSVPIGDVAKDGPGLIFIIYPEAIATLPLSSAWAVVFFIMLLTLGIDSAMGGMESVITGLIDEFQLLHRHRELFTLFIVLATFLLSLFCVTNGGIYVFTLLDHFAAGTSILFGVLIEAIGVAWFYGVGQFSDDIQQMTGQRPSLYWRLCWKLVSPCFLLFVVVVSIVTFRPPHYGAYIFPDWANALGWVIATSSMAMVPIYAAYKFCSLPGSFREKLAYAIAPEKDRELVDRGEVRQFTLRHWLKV

Measured: AC50
Note: assay procedure not described here.

CC(C(=O)O)c1ccc(N2Cc3ccccc3C2=O)cc1 (configuration not stated) [INDOPROFEN]
0.0694 µM: [12]
> 30 µM: all other assays above

COc1ccc2c3c1O[C@H]1[C@@H](O)C=C[C@H]4[C@@H](C2)N(C)CC[C@@]341 [CODEINE]
> 10 µM: [2] | [3] | [4] | [7] | [8] | [9]
> 30 µM: all other assays above

CN1C(=O)C(O)N=C(c2ccccc2Cl)c2cc(Cl)ccc21 (configuration not stated) [LORMETAZEPAM]
> 10 µM: [12]
> 30 µM: all other assays above

O=C(O)CCCCCCNC1c2ccccc2CCc2ccccc21 [AMINEPTINE]
1.5 µM: [13]
> 30 µM: all other assays above

O=C(O)/C=C/c1ccc(Cn2ccnc2)cc1 [OZAGREL]
> 30 µM: all assays above

CC(C)C(=O)c1c(C(C)C)nn2ccccc12 [IBUDILAST]
> 30 µM: all assays above

CC(Oc1c(Cl)cccc1Cl)C1=NCCN1 (configuration not stated) [LOFEXIDINE]
8.86 µM: [10]
1.1 µM: [8]
> 30 µM: all other assays above

CC(C)=CCC/C(C)=C/C=C/C(C)=C/C=C/C(C)=C/C=C/C=C(C)/C=C/C=C(C)/C=C/C=C(\C)CCC=C(C)C [LYCOPENE]
> 30 µM: all assays above

CCCc1nc(C(C)(C)O)c(C(=O)OCc2oc(=O)oc2C)n1Cc1ccc(-c2ccccc2-c2nnn[nH]2)cc1 [OLMESARTAN MEDOXOMIL]
> 30 µM: [1] | [10] | [12] | [13]
> 50 µM: [5] | [11]
> 10 µM: all other assays above
